In general, IC50 refers to the midpoint of a concentration-inhibition curve. A lower IC50 goes with inhibition by little substance.

This note sets out measurements from patent US10947222B2, “Indole derivatives useful as inhibitors of diacylglyceride O-acyltransferase 2” (Merck Sharp & Dohme Corp., priority 2016, dated 2021).

Chain of human DGAT2 (hDGAT2) (Q96PD7 whole entry): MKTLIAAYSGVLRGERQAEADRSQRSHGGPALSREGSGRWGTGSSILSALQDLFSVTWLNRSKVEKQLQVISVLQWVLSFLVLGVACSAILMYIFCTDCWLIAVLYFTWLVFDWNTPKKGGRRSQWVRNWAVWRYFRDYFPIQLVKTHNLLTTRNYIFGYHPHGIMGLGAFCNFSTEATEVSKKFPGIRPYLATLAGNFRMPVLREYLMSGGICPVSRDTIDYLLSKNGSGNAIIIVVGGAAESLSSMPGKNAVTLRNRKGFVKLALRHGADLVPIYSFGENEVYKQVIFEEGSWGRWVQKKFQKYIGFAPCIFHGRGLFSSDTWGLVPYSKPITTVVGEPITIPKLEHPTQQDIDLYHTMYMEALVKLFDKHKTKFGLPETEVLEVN

This test deals with human DGAT2 (hDGAT2) (Homo sapiens (Human), UniProt Q96PD7). Kind of test: DGAT2 enzymatic activity assay (triolein formation, LC/MS/MS). The test is classed as biochemical. The conditions noted are these: Sf-9 membrane prep expressing hDGAT2; 25 μM diolein, 10 μM oleoyl-CoA; triolein by LC/MS/MS. The method, boiled down:
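Membranes from Sf-9 cells infected with untagged baculovirus hDGAT2 were incubated at rt in 100 mM Tris.Cl pH 7.0, 20 mM MgCl2, 5% ethanol with 25 μM diolein and 10 μM oleoyl-CoA (10 ng/μL membrane). Triolein was quantified by LC/MS/MS against internal standard; IC50 by 4-parameter sigmoidal fit.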
`CC1(NC(=O)c2ccc3c(-c4ccccc4Cl)cn(-c4ccc(F)cc4)c3c2)CCS(=O)(=O)C1` (single isomer, unassigned; enantiomer a) [Example 1-A, 3-(2-chlorophenyl)-1-(4-fluorophenyl)-N-(3-methyl-1,1-dioxidotetrahydrothiophen-3-yl)-1H-indole-6-carboxamide (Enantiomer A, fast)]: the IC50 came out at 5.6 nM. Under `Cc1cc(C)n(-c2cccc(-c3cn(-c4ccc(F)cc4)c4cc(C(=O)NC5CCS(=O)(=O)C5)ccc34)c2)n1` (racemic) [Example 61, 3-[3-(3,5-dimethyl-1H-pyrazol-1-yl)phenyl]-N-(1,1-dioxidotetrahydrothiophen-3-yl)-1-(4-fluorophenyl)-1H-indole-6-carboxamide (racemic)] stands 929 nM; under `O=C(NC1CCS(=O)(=O)C1)c1ccc2c(-c3cccc(OC(F)F)c3)cn(-c3ccc(F)cn3)c2c1` (single isomer, unassigned; enantiomer a) [Example 13-A, 3-(3-(difluoromethoxy)phenyl)-N-(1,1-dioxidotetrahydrothiophen-3-yl)-1-(5-fluoropyridin-2-yl)-1H-indole-6-carboxamide (enantiomer A)], 1.8 nM. Then `CC1(NC(=O)c2ccc3c(-c4ccccc4Cl)cn(-c4ncc(F)cn4)c3c2)CCS(=O)(=O)C1` (single isomer, unassigned; enantiomer b) [Example 15-B, 3-(2-chlorophenyl)-1-(5-fluoropyrimidin-2-yl)-N-(3-methyl-1,1-dioxidotetrahydrothiophen-3-yl)-1H-indole-6-carboxamide (enantiomer B, slow)], with 28 nM. Take `C[C@H](NC(=O)c1ccc2c(-c3ccccc3Cl)cn(-c3ccc(F)cc3)c2c1)c1ccc(C(F)(F)F)nc1` [Example 6, (S)-3-(2-chlorophenyl)-1-(4-fluorophenyl)-N-(1-(6-(trifluoromethyl)pyridin-3-yl)ethyl)-1H-indole-6-carboxamide]: the IC50 was determined as 476 nM.

In turn, `O=C(NC1CCS(=O)(=O)C1)c1ccc2c(-c3cccc(OC(F)(F)F)c3)cn(-c3ccc(F)cc3)c2c1` (racemic) [Example 58, N-(1,1-dioxidotetrahydrothiophen-3-yl)-1-(4-fluorophenyl)-3-[3-(trifluoromethoxy)phenyl]-1H-indole-6-carboxamide (racemic)] came in with a 50% inhibitory concentration (IC50) of 14 nM. Then `Cc1ccnc(-c2cn(-c3ccc(F)cc3)c3cc(C(=O)NC4(C)CCS(=O)(=O)C4)ccc23)c1` (racemic) [Example 24, 1-(4-fluorophenyl)-N-(3-methyl-1,1-dioxidotetrahydrothiophen-3-yl)-3-(4-methylpyridin-2-yl)-1H-indole-6-carboxamide (racemic)], with 571 nM; and `C[C@@H](NC(=O)c1ccc2c(-c3ccccc3Cl)cn(-c3ccc(F)cc3)c2c1)c1ccc(C(F)(F)F)nc1` [Example 7, (R)-3-(2-chlorophenyl)-1-(4-fluorophenyl)-N-(1-(6-(trifluoromethyl)pyridin-3-yl)ethyl)-1H-indole-6-carboxamide], with 671 nM. Under `CC1(NC(=O)c2ccc3c(-c4cccc(C5CC5)c4)cn(-c4ncc(F)cn4)c3c2)CCS(=O)(=O)C1` (single isomer, unassigned; enantiomer a) [Example 16-A, 3-(3-cyclopropylphenyl)-1-(5-fluoropyrimidin-2-yl)-N-(3-methyl-1,1-dioxidotetrahydrothiophen-3-yl)-1H-indole-6-carboxamide (enantiomer A)] stands 2.7 nM.
